The molecules below were run against T1, full length active recombinant SYK enzyme (Homo sapiens, UniProt P43405) (assay: Inhibition of Syk tyrosine phosphorylation activity (LANCE TR-FRET kinase assay)). Settings: 1 nM active SYK enzyme, 550 nM SYK-substrate, 100 μM ATP, 1 hour at room temperature.
T1 construct: full length active recombinant SYK enzyme (Millipore, Calif.); purchased Millipore
Assay type: biochemical

Row | SMILES | IC50 [nM]
1 | NC(=O)c1nnc(N[C@@H]2CCCC[C@@H]2N)nc1Nc1cnc2ccccc2c1 [Example 58, 3-(((1R,2S)-2-aminocyclohexyl)amino)-5-(quinolin-3-ylamino)-1,2,4-triazine-6-carboxamide] | 1 to 10
2 | NC(=O)c1nnc(N[C@H](CC2CC2)C(N)=O)nc1Nc1ccc(Cl)cc1 [Example 249, (R)-3-((1-amino-3-cyclopropyl-1-oxopropan-2-yl)amino)-5-((4-chlorophenyl)amino)-1,2,4-triazine-6-carboxamide] | 10 to 100
3 | NC(=O)c1nnc(N[C@@H]2CCCC(F)(F)[C@@H]2N)nc1Nc1ccc2c(c1)CCC2 [Example 213, 3-(((1R,2R)-2-amino-3,3-difluorocyclohexyl)amino)-5-((2,3-dihydro-1H-inden-5-yl)amino)-1,2,4-triazine-6-carboxamide] | 10 to 100
4 | Cn1ccc2c(Nc3nc(N[C@@H]4CCNC4)nnc3C(N)=O)cccc21 [Example 90, (R)-5-((1-methyl-1H-indol-4-yl)amino)-3-(pyrrolidin-3-ylamino)-1,2,4-triazine-6-carboxamide] | 1 to 10
5 | Cc1ccc(Nc2nc(N[C@@H]3CCCC(F)(F)[C@@H]3N)nnc2C(N)=O)cc1Cl [Example 219, 3-(((1R,2R)-2-amino-3,3-difluorocyclohexyl)amino)-5-((3-chloro-4-methylphenyl)amino)-1,2,4-triazine-6-carboxamide] | 10 to 100
6 | NC(=O)c1nnc(N[C@@H]2CCCC(F)(F)[C@@H]2N)nc1Nc1ccc2c(c1)CCCC2 [Example 237, 3-(((1R,2R)-2-amino-3,3-difluorocyclohexyl)amino)-5-((5,6,7,8-tetrahydronaphthalen-2-yl)amino)-1,2,4-triazine-6-carboxamide] | 10 to 100
7 | CC(C)C[C@@H](Nc1nnc(C(N)=O)c(Nc2ccc3cc[nH]c3c2)n1)C(N)=O [Example 103, (R)-5-((1H-indol-6-yl)amino)-3-((1-amino-4-methyl-1-oxopentan-2-yl)amino)-1,2,4-triazine-6-carboxamide] | 1 to 10
8 | CC[C@@H](Nc1nnc(C(N)=O)c(Nc2ccc3c(c2)CCOC3)n1)C(N)=O [Example 212, (R)-3-((1-amino-1-oxobutan-2-yl)amino)-5-(isochroman-6-ylamino)-1,2,4-triazine-6-carboxamide] | 10 to 100
9 | Cc1ccc(Nc2nc(N[C@H](CC(F)(F)F)C(N)=O)nnc2C(N)=O)cc1 [Example 144, (R)-3-((1-amino-4,4,4-trifluoro-1-oxobutan-2-yl)amino)-5-(p-tolylamino)-1,2,4-triazine-6-carboxamide] | 10 to 100
10 | NC(=O)c1nnc(N[C@@H]2CCCC[C@@H]2N)nc1Nc1ccc(-n2nccn2)cc1 [Example 97, 5-((4-(2H-1,2,3-triazol-2-yl)phenyl)amino)-3-(((1R,2S)-2-aminocyclohexyl)amino)-1,2,4-triazine-6-carboxamide] | 10 to 100
11 | NC(=O)c1nnc(N[C@@H]2CCCC[C@@H]2N)nc1Nc1ccc2c(ccc[n+]2[O-])c1 [Example 48, 6-((3-(((1R,2S)-2-aminocyclohexyl)amino)-6-carbamoyl-1,2,4-triazin-5-yl)amino)quinoline 1-oxide] | 10 to 100
12 | CC[C@@H](Nc1nnc(C(N)=O)c(Nc2cccc(F)c2)n1)C(N)=O [Example 195, (R)-3-((1-amino-1-oxobutan-2-yl)amino)-5-((3-fluorophenyl)amino)-1,2,4-triazine-6-carboxamide] | 10 to 100
13 | CN(C)C(=O)c1ccc(Nc2nc(N[C@@H]3CCCC[C@@H]3N)nnc2C(N)=O)cc1 [Example 62, 3-(((1R,2S)-2-aminocyclohexyl)amino)-5-((4-(dimethylcarbamoyl)phenyl)amino)-1,2,4-triazine-6-carboxamide] | 100 to 1000
14 | Cc1cc(Nc2nc(N[C@@H]3CCCC[C@@H]3N)nnc2C(N)=O)sn1 [Example 101, 3-(((1R,2S)-2-aminocyclohexyl)amino)-5-((3-methylisothiazol-5-yl)amino)-1,2,4-triazine-6-carboxamide] | 10 to 100
15 | Cn1cc(Nc2nc(N[C@@H]3CCOC[C@@H]3N)nnc2C(N)=O)cn1 [Example 79, 3-(((3R,4R)-3-aminotetrahydro-2H-pyran-4-yl)amino)-5-((1-methyl-1H-pyrazol-4-yl)amino)-1,2,4-triazine-6-carboxamide] | 100 to 1000
16 | COc1ccc(Nc2nc(N[C@H](CC(C)C)C(N)=O)nnc2C(N)=O)cc1C(F)(F)F [Example 113, (R)-3-((1-amino-4-methyl-1-oxopentan-2-yl)amino)-5-((4-methoxy-3-(trifluoromethyl)phenyl)amino)-1,2,4-triazine-6-carboxamide] | 10 to 100
17 | Cc1cccc(Nc2nc(N[C@H](CC(C)C)C(N)=O)nnc2C(N)=O)c1 [Example 120, (R)-3-((1-amino-4-methyl-1-oxopentan-2-yl)amino)-5-(m-tolylamino)-1,2,4-triazine-6-carboxamide] | 10 to 100
18 | NC(=O)c1nnc(N[C@@H]2CCCC[C@@H]2N)nc1Nc1cccc(-n2cncn2)c1 [Example 5, 5-((3-(1H-1,2,4-triazol-1-yl)phenyl)amino)-3-(((1R,2S)-2-aminocyclohexyl)amino)-1,2,4-triazine-6-carboxamide] | 1 to 10
19 | NC(=O)c1nnc(N[C@@H]2CCOC[C@@H]2N)nc1Nc1cccc(-c2ncccn2)c1 [Example 71, 3-(((3R,4R)-3-aminotetrahydro-2H-pyran-4-yl)amino)-5-((3-(pyrimidin-2-yl)phenyl)amino)-1,2,4-triazine-6-carboxamide] | 10 to 100
20 | CC[C@@H](Nc1nnc(C(N)=O)c(Nc2cnc3cccnc3c2)n1)C(N)=O [Example 146, (R)-5-((1,5-naphthyridin-3-yl)amino)-3-((1-amino-1-oxobutan-2-yl)amino)-1,2,4-triazine-6-carboxamide] | 100 to 1000
21 | CC[C@@H](Nc1nnc(C(N)=O)c(Nc2ccc3c(c2)c(C#N)cn3C)n1)C(N)=O [Example 183, (R)-3-((1-amino-1-oxobutan-2-yl)amino)-5-((3-cyano-1-methyl-1H-indol-5-yl)amino)-1,2,4-triazine-6-carboxamide] | < 1
22 | Cc1ccc(Nc2nc(N[C@H](Cc3cccs3)C(N)=O)nnc2C(N)=O)cc1 [Example 188, (R)-3-(1-amino-1-oxo-3-(thiophen-2-yl)propan-2-ylamino)-5-(p-tolylamino)-1,2,4-triazine-6-carboxamide] | 10 to 100
23 | NC(=O)c1nnc(N[C@@H]2CCCC[C@@H]2N)nc1Nc1cnc2cccnc2c1 [Example 258, 5-((1,5-naphthyridin-3-yl)amino)-3-(((1R,2S)-2-aminocyclohexyl)amino)-1,2,4-triazine-6-carboxamide] | 10 to 100
24 | CCC(=O)N1CCC(c2ccc(Nc3nc(N[C@@H]4CCCC[C@@H]4N)nnc3C(N)=O)cc2)CC1 [Example 28, 3-(((1R,2S)-2-aminocyclohexyl)amino)-5-((4-(1-propionylpiperidin-4-yl)phenyl)amino)-1,2,4-triazine-6-carboxamide] | 1 to 10
25 | Cn1ccc2c(Nc3nc(N[C@@H]4CCCC(F)(F)[C@@H]4N)nnc3C(N)=O)cccc21 [Example 94, 3-(((1R,2R)-2-amino-3,3-difluorocyclohexyl)amino)-5-((1-methyl-1H-indol-4-yl)amino)-1,2,4-triazine-6-carboxamide] | 1 to 10
